Read-outs that look alike come from different tables or passages of the source.
Legend:
[1] = target: T1, AEA-DA lipid probe targets in Neuro2a cells (Mus musculus, UniProt Q62465); settings: for SILAC ratio, VAT1 (Q99536): Neuro2a cells, AEA-DA probe
T1 sequence (Q62465 1-406): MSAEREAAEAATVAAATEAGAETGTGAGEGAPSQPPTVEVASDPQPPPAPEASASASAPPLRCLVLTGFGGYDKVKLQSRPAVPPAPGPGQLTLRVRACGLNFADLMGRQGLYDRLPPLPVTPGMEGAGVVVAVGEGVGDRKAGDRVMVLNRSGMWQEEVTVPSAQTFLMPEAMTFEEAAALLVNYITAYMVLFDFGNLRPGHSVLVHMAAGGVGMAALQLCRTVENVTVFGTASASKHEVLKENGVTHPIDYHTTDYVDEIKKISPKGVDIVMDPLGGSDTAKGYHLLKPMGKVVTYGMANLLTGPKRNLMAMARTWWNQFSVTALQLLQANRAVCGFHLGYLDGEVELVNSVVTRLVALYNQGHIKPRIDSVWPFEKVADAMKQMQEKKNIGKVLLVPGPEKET

[2] = target: T2, AEA-DA lipid probe targets in Neuro2a cells (Mus musculus, UniProt Q8BJ71)
T2 sequence (Q8BJ71 1-819): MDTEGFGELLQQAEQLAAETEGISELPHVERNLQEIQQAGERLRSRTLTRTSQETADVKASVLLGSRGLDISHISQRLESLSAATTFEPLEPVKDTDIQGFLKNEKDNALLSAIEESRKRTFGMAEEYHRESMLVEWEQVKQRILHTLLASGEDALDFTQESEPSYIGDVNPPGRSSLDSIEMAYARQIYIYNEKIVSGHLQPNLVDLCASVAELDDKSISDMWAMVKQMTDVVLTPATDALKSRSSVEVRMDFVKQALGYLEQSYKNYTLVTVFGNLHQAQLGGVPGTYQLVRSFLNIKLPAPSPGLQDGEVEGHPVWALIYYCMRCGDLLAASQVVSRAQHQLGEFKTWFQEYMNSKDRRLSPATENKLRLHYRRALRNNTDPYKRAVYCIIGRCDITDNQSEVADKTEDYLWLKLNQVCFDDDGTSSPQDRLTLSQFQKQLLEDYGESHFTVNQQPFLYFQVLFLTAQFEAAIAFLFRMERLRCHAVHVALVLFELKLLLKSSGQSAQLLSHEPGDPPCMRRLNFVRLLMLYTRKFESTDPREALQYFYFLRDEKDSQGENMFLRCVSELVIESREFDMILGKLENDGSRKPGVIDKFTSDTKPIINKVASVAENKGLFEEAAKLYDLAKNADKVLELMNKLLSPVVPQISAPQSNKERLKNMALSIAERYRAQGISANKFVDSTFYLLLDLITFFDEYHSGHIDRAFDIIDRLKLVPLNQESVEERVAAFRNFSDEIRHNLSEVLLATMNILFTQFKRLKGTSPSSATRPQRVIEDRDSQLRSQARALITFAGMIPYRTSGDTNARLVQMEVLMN

[3] = target: T3, AEA-DA lipid probe targets in Neuro2a cells (Mus musculus, UniProt Q8BP40)
T3 sequence (Q8BP40 26-418): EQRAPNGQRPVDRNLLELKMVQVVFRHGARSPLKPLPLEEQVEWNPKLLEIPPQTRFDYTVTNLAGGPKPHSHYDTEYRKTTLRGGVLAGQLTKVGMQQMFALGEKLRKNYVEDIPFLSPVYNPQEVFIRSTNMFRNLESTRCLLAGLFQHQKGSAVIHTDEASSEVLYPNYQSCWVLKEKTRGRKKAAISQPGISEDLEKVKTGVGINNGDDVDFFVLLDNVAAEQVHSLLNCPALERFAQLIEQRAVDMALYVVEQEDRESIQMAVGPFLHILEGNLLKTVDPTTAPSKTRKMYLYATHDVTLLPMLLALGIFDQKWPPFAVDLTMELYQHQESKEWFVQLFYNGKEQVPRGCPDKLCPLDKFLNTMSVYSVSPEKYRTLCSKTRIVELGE

[4] = target: AEA-DA lipid probe targets in Neuro2a cells (Mus musculus, UniProt Q8JZU2)
[5] = target: T4, AEA-DA lipid probe targets in Neuro2a cells (Mus musculus, UniProt Q8R127)
T4 sequence (Q8R127 1-429): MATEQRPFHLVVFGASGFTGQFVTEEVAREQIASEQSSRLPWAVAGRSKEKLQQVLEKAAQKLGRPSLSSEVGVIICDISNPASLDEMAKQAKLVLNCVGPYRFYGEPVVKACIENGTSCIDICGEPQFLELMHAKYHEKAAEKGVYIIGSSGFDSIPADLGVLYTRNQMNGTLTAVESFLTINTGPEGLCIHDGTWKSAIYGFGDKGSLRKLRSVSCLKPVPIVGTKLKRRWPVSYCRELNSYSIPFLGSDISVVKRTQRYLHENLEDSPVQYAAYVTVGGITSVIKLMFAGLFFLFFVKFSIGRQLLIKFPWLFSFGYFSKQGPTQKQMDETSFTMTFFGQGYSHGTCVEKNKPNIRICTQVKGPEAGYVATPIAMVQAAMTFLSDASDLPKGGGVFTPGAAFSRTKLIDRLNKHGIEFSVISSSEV

[6] = target: AEA-DA lipid probe targets in Neuro2a cells (Mus musculus, UniProt Q99KQ4)
[7] = target: T5, AEA-DA lipid probe targets in Neuro2a cells (Mus musculus, UniProt Q99L04)
T5 sequence (Q99L04 1-313): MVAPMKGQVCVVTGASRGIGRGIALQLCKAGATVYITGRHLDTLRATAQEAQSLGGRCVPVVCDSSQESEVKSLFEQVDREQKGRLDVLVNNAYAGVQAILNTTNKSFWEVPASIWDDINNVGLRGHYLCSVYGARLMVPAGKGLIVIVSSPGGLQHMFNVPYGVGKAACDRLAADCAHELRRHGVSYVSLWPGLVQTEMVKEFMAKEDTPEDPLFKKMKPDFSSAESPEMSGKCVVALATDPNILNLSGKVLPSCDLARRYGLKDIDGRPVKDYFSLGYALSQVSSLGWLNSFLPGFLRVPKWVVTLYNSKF

[8] = target: AEA-DA lipid probe targets in Neuro2a cells (Mus musculus, UniProt G5E895); settings: competitor 25 μM
[9] = target: AEA-DA lipid probe targets in Neuro2a cells (Mus musculus, UniProt Q8BK63)
Sequence of AEA-DA lipid probe targets in Neuro2a cells (Mus musculus, UniProt Q8BK63) (Q8BK63 whole entry): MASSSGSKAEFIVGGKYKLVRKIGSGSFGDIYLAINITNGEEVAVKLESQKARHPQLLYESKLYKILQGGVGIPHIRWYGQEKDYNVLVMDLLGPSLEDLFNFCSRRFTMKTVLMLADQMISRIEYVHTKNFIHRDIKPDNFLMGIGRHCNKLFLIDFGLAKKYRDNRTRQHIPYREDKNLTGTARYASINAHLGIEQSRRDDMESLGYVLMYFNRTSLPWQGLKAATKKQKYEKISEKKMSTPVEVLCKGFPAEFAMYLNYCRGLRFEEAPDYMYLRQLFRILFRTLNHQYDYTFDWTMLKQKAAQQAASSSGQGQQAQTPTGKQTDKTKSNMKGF

Sequence of AEA-DA lipid probe targets in Neuro2a cells (Mus musculus, UniProt Q99KQ4) (Q99KQ4 whole entry): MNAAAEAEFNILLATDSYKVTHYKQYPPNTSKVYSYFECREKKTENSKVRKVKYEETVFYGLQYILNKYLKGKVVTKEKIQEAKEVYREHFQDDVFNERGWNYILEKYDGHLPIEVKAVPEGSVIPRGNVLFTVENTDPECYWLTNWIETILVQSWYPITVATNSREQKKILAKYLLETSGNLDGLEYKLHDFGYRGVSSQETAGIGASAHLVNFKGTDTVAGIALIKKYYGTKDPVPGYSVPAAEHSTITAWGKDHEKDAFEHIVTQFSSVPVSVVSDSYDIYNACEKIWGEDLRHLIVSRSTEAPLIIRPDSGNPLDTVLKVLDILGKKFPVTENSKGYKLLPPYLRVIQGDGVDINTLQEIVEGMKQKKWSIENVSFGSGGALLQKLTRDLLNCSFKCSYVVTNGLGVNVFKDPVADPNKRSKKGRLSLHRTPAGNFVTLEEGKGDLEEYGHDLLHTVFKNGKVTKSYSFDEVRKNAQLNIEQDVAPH
Sequence of AEA-DA lipid probe targets in Neuro2a cells (Mus musculus, UniProt Q8JZU2) (Q8JZU2 14-311): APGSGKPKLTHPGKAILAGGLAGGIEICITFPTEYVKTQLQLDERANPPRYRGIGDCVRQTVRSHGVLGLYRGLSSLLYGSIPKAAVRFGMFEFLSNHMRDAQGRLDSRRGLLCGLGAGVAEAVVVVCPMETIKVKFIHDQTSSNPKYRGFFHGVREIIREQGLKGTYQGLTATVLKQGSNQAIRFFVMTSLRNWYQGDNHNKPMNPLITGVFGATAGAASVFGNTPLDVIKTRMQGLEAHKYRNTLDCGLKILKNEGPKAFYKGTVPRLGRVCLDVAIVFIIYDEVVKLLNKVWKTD
Sequence of AEA-DA lipid probe targets in Neuro2a cells (Mus musculus, UniProt G5E895) (G5E895 1-316): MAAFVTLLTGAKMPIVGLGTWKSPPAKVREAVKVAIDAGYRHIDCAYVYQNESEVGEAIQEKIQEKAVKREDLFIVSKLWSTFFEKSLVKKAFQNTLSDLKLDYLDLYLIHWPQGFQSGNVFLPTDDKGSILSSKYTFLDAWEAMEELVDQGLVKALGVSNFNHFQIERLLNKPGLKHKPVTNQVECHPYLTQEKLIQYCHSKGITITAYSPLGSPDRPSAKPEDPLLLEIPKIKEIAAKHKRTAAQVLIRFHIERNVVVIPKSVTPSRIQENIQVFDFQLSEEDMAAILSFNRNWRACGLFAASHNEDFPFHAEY

With `CCCCC/C=C\C/C=C\C/C=C\C/C=C\CCCC(=O)NCCO` [AEA, anandamide, reference compound] the “SILAC ratio, VAT1 (Q99536)” value ([1]; competitor 200 μM) was 1.6, the “SILAC ratio Vat1” value ([1]; competitor 200 μM) was 1.6 and the “SILAC ratio Nup93” value ([2]; competitor 200 μM) was 1.2. The “SILAC ratio, Acp6” value ([3]; competitor 200 μM) was 2.5, the “SILAC ratio Slc25a1” value ([4]; competitor 200 μM) was 1.2 and the “SILAC ratio, Sccpdh” value ([5]; competitor 200 μM) was 3.4. For the same compound, the “SILAC ratio, Nampt” value ([6]; competitor 200 μM) was 1.1 and the “SILAC ratio, Dhrs1” value ([7]; competitor 200 μM) was 18.4.

For `O=C(/C=C/c1cccnc1)NCCCCC1CCN(C(=O)c2ccccc2)CC1` [FK-866, reference compound], the “SILAC ratio, Akr1b10” value [8] was 1.9, the “SILAC ratio, VAT1 (Q99536)” value ([1]; competitor 25 μM) was 1.9 and the “SILAC ratio Vat1” value ([1]; competitor 25 μM) was 1.9. For the same compound, the “SILAC ratio Nup93” value ([2]; competitor 25 μM) was 1.2, the “SILAC ratio Csnk1a1” value ([9]; competitor 25 μM) was 1.5 and the “SILAC ratio, Acp6” value ([3]; competitor 25 μM) was 1.2. For the same compound, the “SILAC ratio Slc25a1” value ([4]; competitor 25 μM) was 1.2, the “SILAC ratio, Sccpdh” value ([5]; competitor 25 μM) was 7.3 and the “SILAC ratio, Nampt” value ([6]; competitor 25 μM) was 16.4. For the same compound, the “SILAC ratio, Dhrs1” value ([7]; competitor 25 μM) was 8.0.

For `CN1CCN(C(=O)c2c(-c3ccccc3)c3cc([N+](=O)[O-])ccc3n2C)CC1` [KML110, (1-Methyl-5-nitro-3-phenyl-1H-indol-2-yl)(4-methylpiperazin-1-yl)methanone], the “SILAC ratio, Akr1b10” value [8] was 3.9, the “SILAC ratio Vat1” value ([1]; competitor 25 μM) was 1.4 and the “SILAC ratio Nup93” value ([2]; competitor 25 μM) was 1.4. The “SILAC ratio Csnk1a1” value ([9]; competitor 25 μM) was 1.5, the “SILAC ratio, Acp6” value ([3]; competitor 25 μM) was 1.6 and the “SILAC ratio Slc25a1” value ([4]; competitor 25 μM) was 1.2. The “SILAC ratio, Sccpdh” value ([5]; competitor 25 μM) was 2.6, the “SILAC ratio, Nampt” value ([6]; competitor 25 μM) was 2.0 and the “SILAC ratio, Dhrs1” value ([7]; competitor 25 μM) was 2.7.

`CN1CCN(C(=O)c2[nH]c3ccc([N+](=O)[O-])cc3c2-c2ccccc2)CC1` [MJN228, (4-Methylpiperazin-1-yl)(5-nitro-3-phenyl-1H-indol-2-yl)methanone] was tested, and the “SILAC ratio, Akr1b10” value [8] was 2.8, the “SILAC ratio Vat1” value ([1]; competitor 10 μM) was 1.2 and the “SILAC ratio Vat1” value ([1]; competitor 25 μM) was 1.3. The “SILAC ratio Vat1” value ([1]; competitor 50 μM) was 1.0, the “SILAC ratio Vat1” value ([1]; competitor 100 μM) was 1.2 and the “SILAC ratio Nup93” value ([2]; competitor 10 μM) was 0.9. For the same compound, the “SILAC ratio Nup93” value ([2]; competitor 25 μM) was 1.1, the “SILAC ratio Nup93” value ([2]; competitor 50 μM) was 1.0 and the “SILAC ratio Nup93” value ([2]; competitor 100 μM) was 1.1. For the same compound, the “SILAC ratio Csnk1a1” value ([9]; competitor 25 μM) was 1.4, the “SILAC ratio Csnk1a1” value ([9]; competitor 100 μM) was 1.3 and the “SILAC ratio, Acp6” value ([3]; competitor 10 μM) was 1.5. The “SILAC ratio, Acp6” value ([3]; competitor 25 μM) was 1.5, the “SILAC ratio, Acp6” value ([3]; competitor 50 μM) was 1.8 and the “SILAC ratio, Acp6” value ([3]; competitor 100 μM) was 2.3. For the same compound, the “SILAC ratio Slc25a1” value ([4]; competitor 10 μM) was 1.2, the “SILAC ratio Slc25a1” value ([4]; competitor 25 μM) was 1.1 and the “SILAC ratio Slc25a1” value ([4]; competitor 50 μM) was 1.5. For the same compound, the “SILAC ratio Slc25a1” value ([4]; competitor 100 μM) was 1.5, the “SILAC ratio, Sccpdh” value ([5]; competitor 10 μM) was 1.4 and the “SILAC ratio, Sccpdh” value ([5]; competitor 25 μM) was 2.1. The “SILAC ratio, Sccpdh” value ([5]; competitor 50 μM) was 3.3, the “SILAC ratio, Sccpdh” value ([5]; competitor 100 μM) was 5.9 and the “SILAC ratio, Nampt” value ([6]; competitor 25 μM) was 1.2. The “SILAC ratio, Nampt” value ([6]; competitor 50 μM) was 1.0, the “SILAC ratio, Dhrs1” value ([7]; competitor 10 μM) was 1.4 and the “SILAC ratio, Dhrs1” value ([7]; competitor 25 μM) was 1.8. For the same compound, the “SILAC ratio, Dhrs1” value ([7]; competitor 50 μM) was 2.4 and the “SILAC ratio, Dhrs1” value ([7]; competitor 100 μM) was 4.4.

`C=CCN(C)CCCCCCOc1ccc(C(=O)c2ccc(Br)cc2)c(F)c1` [Ro 48-8071, reference compound] was tested, and the “SILAC ratio, Akr1b10” value [8] was 1.5, the “SILAC ratio, VAT1 (Q99536)” value ([1]; competitor 25 μM) was 1.2 and the “SILAC ratio Vat1” value ([1]; competitor 25 μM) was 1.2. The “SILAC ratio Nup93” value ([2]; competitor 25 μM) was 0.9, the “SILAC ratio Csnk1a1” value ([9]; competitor 25 μM) was 0.9 and the “SILAC ratio, Acp6” value ([3]; competitor 25 μM) was 0.9. For the same compound, the “SILAC ratio Slc25a1” value ([4]; competitor 25 μM) was 1.0, the “SILAC ratio, Sccpdh” value ([5]; competitor 25 μM) was 1.6 and the “SILAC ratio, Nampt” value ([6]; competitor 25 μM) was 0.9. For the same compound, the “SILAC ratio, Dhrs1” value ([7]; competitor 25 μM) was 9.5.
